The values below come from PMC10035370, “Targeting Tumor Angiogenesis with the Selective VEGFR-3 Inhibitor EVT801 in Combination with Cancer Immunotherapy” (Cancer Research Communications, 2022).

SMILES strings stand for the structures. Read-outs that look alike come from different tables or passages of the source.

The test system of one test is hLMVEC. As to the kind of experiment: Growth factor-induced hLMVEC proliferation. In kind it is cell-based, human. The following applies: for IC50: Homo sapiens. The protocol: hLMVEC were seeded in white cell culture-treated flat and clear bottom multi-well plates and incubated at 37 °C overnight, before compounds were added. After incubation for 72 h at 37 °C, plates were equilibrated to ambient temperature for 1 h, and CellTiterGlo reagent (Promega) was added. After approximately 1h, luminescence was measured using a luminometer. Curves were fitted via sigmoidal dose response curves, and IC50 values were determined.

For another test, the system named is tubule formation. As to the kind of experiment: Mouse aortic ring assay stimulated by a 4T1 tumor fragment. In kind it is cell-based. Particulars: 300 nM, day 8. Here is the method: Neo-angiogenesis was studied in vitro by culturing rings of mouse thoracic aorta in 3-dimensional collagen gels, as previously described (2), but the mouse serum was replaced by a piece of 4T1 tumor. Briefly, 1 mm-long aortic ring-shaped fragments of 9-week old C57Bl/6J mice, and 1 mm^3 4T1 tumor pieces resected 21 days after orthotopic injection in mammary fat pad of BALB/c mice were embedded in a rat tail interstitial collagen gel (1.5 mg/mL). It was prepared by mixing 7.5 volumes of 2 mg/mL collagen (Collagen R, Serva), 1 volume of 10 x minimum essential medium (MEM, Life Technologies Ltd.), 1.5 volumes of NaHCO3 (15.6 mg/mL), and 0.1 volume 1 M NaOH to adjust the pH to 7.4. The collagen gels containing the aortic rings were polymerized in cylindrical agarose wells, and kept in triplicate at 37 °C in 60 mm diameter Petri dishes (bacteriological polystyrene; Falcon, Becton Dickinson). Each dish contained 6 mL of MCDB131 (Life Technologies Ltd.) supplemented with 25 mM NaHCO3, 1 % glutamine, 100 U/mL penicillin, and 100 µg/mL streptomycin. The cultures were kept at 37 °C in a humidified environment for 8 days and examined every other day with a Nikon microscope at appropriate magnification. […] Quantification of pseudo-tubules was performed at day 8 using an automated computer-assisted image analysis system (Morpho Expert V2.50, Explora Nova, La Rochelle, France). […]

The next test has as its target VEGFR-2 (Homo sapiens, UniProt P35968). Description: Biochemical kinase assay (in vitro assay), VEGFR-2. Also on record: expressed in transfected cells; host or cells: HEK293T. The following applies: read-out: IC50 in biochemical assays, VEGFR-2. Here is the method: (§1) Sigma protein kinase assay kits were used. 125 μL per well of Poly-Glu-Tyr (PGT) solution (250 μg/mL of PGT in PBS without Ca^2+, Mg^2+ and sodium bicarbonate) was added in a 96-well plate and overnight incubation was performed at 37 °C. The day after, coating solution was removed and wells were washed with 300 μL of PBS-Tween-20 0.05 %. The washing buffer was removed and wells were dried for 2 h at 37 °C. 90 μL of the kinase buffer was supplemented with ATP (30 μM for VEGFR-1 and VEGFR-3, and 15 μM for VEGFR-2), and the compound (EVT801 or SAR401849 at the indicated concentration or 1 % DMSO for the vehicle control). The phosphorylation reaction was initiated by the addition of 20 μL of kinase buffer without ATP supplemented with 100 ng of the tyrosine kinase (or without tyrosine kinase as control). Plates were incubated with gentle agitation at room temperature for 30 min. After 3 washes with 300 μL of washing buffer, 100 μL of phosphotyrosine specific monoclonal antibody conjugated to HRP (1:30,000) was added onto the phosphorylated PGT. Plates were incubated for 30 min at room temperature under gentle agitation. Then, 3 washes with 300 μL of washing buffer were performed. […] After 7 min at room temperature, the reaction was stopped by addition of 100 μL of […], and absorbance was determined with an Endvision spectrophotometer at 492 nm.

In another test the test system is ERK phosphorylation. Description: Immunoblot of phosphorylated ERK in NCI-H1703 cells. In kind it is cell-based, human. The following applies: 1 μmol/L. Here is the method:
For immunoblotting, 2 x 10^5 cells were scraped and lysed with RIPA lysis buffer (Sigma, R0278), supplemented with protease inhibitor cocktail (Ozyme, 5872S). After separation by SDS-PAGE, proteins were transferred to PVDF membranes. Membranes were blocked with 5 % milk in TBS-T for saturation step and incubated with phosphorylated ERK (CellSignaling, 4377, 1:1000) or GAPDH (CellSignaling, 5174, 1:1000) antibodies overnight, followed by an anti-mouse IgG, secondary antibody HRP linked (CellSignaling, 7076, 1:2000) in antibodies buffer (TBS-Tween 0.05 %, 0.1 % BSA) for 2 h. Membranes were washed 3 x 10 min in TBS before adding chemiluminescent substrate (Supersignal West Pico Plus, 54580, ThermoFisher) and imaged by the Pxi6 station (Ozyme).

The target in test [1] is T1, VEGFR-3 (Homo sapiens, UniProt P35916). As to the kind of experiment: Biochemical kinase assay (in vitro assay), VEGFR-3. Also on record: expressed in transfected cells; host or cells: HEK293T. The following applies: read-out: IC50 in biochemical assays, VEGFR-3. Here is the method: as §1
Test [2] addresses T1, VEGFR-3. As to the kind of experiment: Cellular autophosphorylation assay, HEK293 cells transiently expressing VEGFR-3. In kind it is cell-based. Also on record: expressed in transfected cells; host or cells: HEK293T. Particulars: read-out: IC50 in cellular assays, VEGFR-3 autophosphorylation. Here is the method: Transfection of HEK293T cells and Ba/F3 cells with VEGFR-1-Flag, VEGFR-2-Flag or VEGFR-3-Flag expression constructs was performed using Fugene-6 (Roche) as per manufacturer’s protocol. Briefly, Fugene-6 was pre-incubated with Opti-Mem (Gibco) before adding DNA. After 24 h, media was replaced with serum-free culture media containing 0.2 % BSA. On the next day, cells were incubated for 1 h in 1 mM orthovanadate, harvested, dissociated and distributed at 4 x 10^5 cells in 5 mL for HEK-VEGFR-1 and HEK-VEGFR-3, and 5 x 10^4 cells per 5 mL for HEK VEGFR-2 in the presence of EVT801 or SAR401849. After 30 min, the reaction was stopped by the addition of cold PBS supplemented with 1 mM orthovanadate. Cells were then lysed with 150 μl of RIPA buffer for 15 min at 4°C, then centrifuged for 10 min at 10,000 g. Supernatants (75 μl) were distributed in duplicate on 96 well plates that were precoated with the anti-flag, and left for 1 h at room temperature. After 3 washes, the anti-phosphotyrosine conjugated to the HRP was added and incubated for 1 h at room temperature. Wells were then washed 3 times with TBS buffer containing 0.5 % Tween-20 and 2 mM MgCl2. The reaction was stopped with 50 μL of 2 N H2SO4, and the signal was read with Envision at the wavelengths of 485 nm and 530 nm.

T1 sequence (P35916 25-1363): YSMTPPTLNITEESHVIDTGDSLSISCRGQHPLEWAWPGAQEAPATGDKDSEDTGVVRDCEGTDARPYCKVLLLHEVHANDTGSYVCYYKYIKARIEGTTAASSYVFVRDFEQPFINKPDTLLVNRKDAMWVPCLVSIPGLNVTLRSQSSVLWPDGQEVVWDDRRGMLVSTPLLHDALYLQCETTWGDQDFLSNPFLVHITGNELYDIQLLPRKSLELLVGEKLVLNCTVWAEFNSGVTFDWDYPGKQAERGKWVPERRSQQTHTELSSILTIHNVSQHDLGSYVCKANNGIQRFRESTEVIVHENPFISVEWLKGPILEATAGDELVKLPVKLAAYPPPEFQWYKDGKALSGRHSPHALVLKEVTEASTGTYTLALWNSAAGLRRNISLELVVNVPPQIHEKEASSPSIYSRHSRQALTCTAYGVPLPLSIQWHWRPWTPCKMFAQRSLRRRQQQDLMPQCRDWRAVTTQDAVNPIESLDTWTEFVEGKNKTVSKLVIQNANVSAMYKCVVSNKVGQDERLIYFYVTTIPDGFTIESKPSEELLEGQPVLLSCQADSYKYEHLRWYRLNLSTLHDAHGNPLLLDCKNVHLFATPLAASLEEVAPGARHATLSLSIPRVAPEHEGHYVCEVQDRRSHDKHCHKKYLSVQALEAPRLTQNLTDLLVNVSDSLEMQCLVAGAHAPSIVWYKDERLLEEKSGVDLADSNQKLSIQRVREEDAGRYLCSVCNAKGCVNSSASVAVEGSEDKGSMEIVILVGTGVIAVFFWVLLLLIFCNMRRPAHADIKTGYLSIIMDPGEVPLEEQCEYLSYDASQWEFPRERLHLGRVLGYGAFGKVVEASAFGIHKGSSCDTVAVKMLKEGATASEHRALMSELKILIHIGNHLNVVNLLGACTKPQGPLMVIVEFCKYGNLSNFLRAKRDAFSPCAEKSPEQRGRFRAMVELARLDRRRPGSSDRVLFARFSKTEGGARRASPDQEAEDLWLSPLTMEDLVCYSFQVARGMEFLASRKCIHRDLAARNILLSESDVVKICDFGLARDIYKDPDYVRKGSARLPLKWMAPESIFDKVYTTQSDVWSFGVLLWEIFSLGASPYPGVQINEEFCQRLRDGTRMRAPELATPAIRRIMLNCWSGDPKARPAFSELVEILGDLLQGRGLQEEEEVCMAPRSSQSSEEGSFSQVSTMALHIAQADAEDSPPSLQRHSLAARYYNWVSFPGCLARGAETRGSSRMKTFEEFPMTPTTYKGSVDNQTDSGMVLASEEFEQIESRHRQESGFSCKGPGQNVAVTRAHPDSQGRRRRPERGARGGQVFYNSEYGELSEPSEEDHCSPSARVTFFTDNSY
Chain of VEGFR-2 (P35968 20-1356): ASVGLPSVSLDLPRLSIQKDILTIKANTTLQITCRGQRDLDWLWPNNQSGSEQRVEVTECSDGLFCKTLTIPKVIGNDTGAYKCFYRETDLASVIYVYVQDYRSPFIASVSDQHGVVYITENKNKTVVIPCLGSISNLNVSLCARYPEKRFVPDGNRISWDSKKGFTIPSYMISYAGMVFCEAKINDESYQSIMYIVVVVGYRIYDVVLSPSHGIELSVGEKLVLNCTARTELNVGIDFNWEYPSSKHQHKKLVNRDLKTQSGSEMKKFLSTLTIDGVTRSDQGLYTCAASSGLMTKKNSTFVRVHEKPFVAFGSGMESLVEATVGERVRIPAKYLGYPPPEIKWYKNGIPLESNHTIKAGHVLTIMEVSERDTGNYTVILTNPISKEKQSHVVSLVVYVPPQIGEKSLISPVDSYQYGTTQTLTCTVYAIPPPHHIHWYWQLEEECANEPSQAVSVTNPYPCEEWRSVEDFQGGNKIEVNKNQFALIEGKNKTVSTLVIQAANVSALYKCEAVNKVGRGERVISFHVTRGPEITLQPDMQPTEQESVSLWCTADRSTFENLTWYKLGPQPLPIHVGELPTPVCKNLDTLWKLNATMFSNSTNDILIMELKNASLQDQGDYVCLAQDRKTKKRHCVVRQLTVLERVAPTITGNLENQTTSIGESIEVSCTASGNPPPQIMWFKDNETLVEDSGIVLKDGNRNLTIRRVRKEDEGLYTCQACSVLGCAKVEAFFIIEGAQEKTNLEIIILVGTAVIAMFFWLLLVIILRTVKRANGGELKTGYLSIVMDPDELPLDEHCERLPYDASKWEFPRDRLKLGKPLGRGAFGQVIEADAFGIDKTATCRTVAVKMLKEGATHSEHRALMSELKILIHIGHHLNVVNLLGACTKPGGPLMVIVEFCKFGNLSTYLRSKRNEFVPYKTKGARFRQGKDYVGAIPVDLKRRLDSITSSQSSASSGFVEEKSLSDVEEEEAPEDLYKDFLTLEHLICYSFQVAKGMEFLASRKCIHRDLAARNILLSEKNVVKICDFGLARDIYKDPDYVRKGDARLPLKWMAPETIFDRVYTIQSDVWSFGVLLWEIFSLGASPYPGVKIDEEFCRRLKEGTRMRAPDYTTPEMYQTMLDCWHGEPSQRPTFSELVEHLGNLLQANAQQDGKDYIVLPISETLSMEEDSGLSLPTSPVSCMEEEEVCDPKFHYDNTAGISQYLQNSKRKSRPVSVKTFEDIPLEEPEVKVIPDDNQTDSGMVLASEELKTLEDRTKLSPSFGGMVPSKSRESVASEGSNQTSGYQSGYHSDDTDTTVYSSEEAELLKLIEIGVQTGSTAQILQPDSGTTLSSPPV

Turning to `CCn1c(N)c(-c2ncc[nH]2)c(=O)c2ccc(C#C[C@@](C)(O)COC)nc21` [EVT801], the IC50 came to 155 nM in the test with hLMVEC (read-out: IC50, inhibition of VEGF-A-induced hLMVEC proliferation); 15 nM in the test with hLMVEC (read-out: IC50, inhibition of VEGF-C-induced hLMVEC proliferation); 8 nM in the test on hLMVEC (read-out: IC50, inhibition of VEGF-D-induced hLMVEC proliferation); 130 nM at VEGFR-2; 11 nM on VEGFR-3 [1]; 39 nM on VEGFR-3 [2]. The “maximum inhibition of VEGF-A-induced hLMVEC proliferation” value with hLMVEC (VEGF-A) came to 65%. For the same compound, the “maximum inhibition of VEGF-C-induced hLMVEC proliferation” value in the test on hLMVEC (VEGF-C) is 74%. The “maximum inhibition of VEGF-D-induced hLMVEC proliferation” value in the test with hLMVEC (VEGF-D) was determined as 100%. The “tubule formation (tubule length)” value in the test with tubule formation is listed as “prevents tumor-induced tubule formation almost completely”. In addition, the “reduction of ERK phosphorylation induced by VEGF-C and VEGF-D” value in the test with ERK phosphorylation was “better than pazopanib”.
